Read-outs that look alike come from different tables or passages of the source.
Tests used:
[1] = target: human ATR (Homo sapiens (Human), UniProt Q13535); assay: ATR binding assay (TR-FRET, displacement of fluorescent tracer A or B)
[2] = system: B16F10 cells; assay: Proliferation assay, crystal violet staining; conditions: B16-F10, 96 h, read-out: Inhibition of B16F10 cell proliferation
Experimental: Human tumour cells (Table 8) were originally obtained from the American Type Culture Collection (ATCC), the Deutsche Sammlung von Mikroorganismen and Zellkulturen (DSMZ, German Collection of Microorganisms and Cell Cultures), or Epo GmbH Berlin. […] After 24 hours, the cells of one plate (zero plate) were dyed with crystal violet (see below), whereas the medium of the other plates was replaced with fresh culture medium (200 μl) to which the test substances were added in various concentrations (0 μM, and also in the range of 0.001-10 μM; the final concentration of the solvent dimethyl sulphoxide was 0.1 or 0.5%). The cells were incubated for 4 days in the presence of the test substances. […] After washing the fixed cells three times with water, the plates were dried at room temperature. The cells were stained by adding 100 μl/measurement point of a 0.1% strength crystal violet solution (pH adjusted to pH 3 by adding acetic acid). After washing the cells three times with water, the plates were dried at room temperature. The dye was dissolved by adding 100 μl/measurement point of a 10% strength acetic acid solution. […] The percentage change in cell growth was calculated by normalizing the measured values to the absorbance values of the zero plate (=0%) and the absorbance of the untreated (0 W) cells (=100%). The IC50 values were determined by means of a four parameter fit.

[3] = system: DU145 cells; assay: Proliferation assay, crystal violet staining; conditions: Homo sapiens, DU-145, 96 h, read-out: Inhibition of DU145 cell proliferation, DU145 cells, 4 days incubation
Experimental: (§1) After 24 hours, the cells of one plate (zero plate) were dyed with crystal violet (see below), whereas the medium of the other plates was replaced with fresh culture medium (200 μl) to which the test substances were added in various concentrations (0 μM, and also in the range of 0.001-10 μM; the final concentration of the solvent dimethyl sulphoxide was 0.1 or 0.5%). The cells were incubated for 4 days in the presence of the test substances. […] After washing the fixed cells three times with water, the plates were dried at room temperature. The cells were stained by adding 100 μl/measurement point of a 0.1% strength crystal violet solution (pH adjusted to pH 3 by adding acetic acid). After washing the cells three times with water, the plates were dried at room temperature. The dye was dissolved by adding 100 μl/measurement point of a 10% strength acetic acid solution. […] The percentage change in cell growth was calculated by normalizing the measured values to the absorbance values of the zero plate (=0%) and the absorbance of the untreated (0 W) cells (=100%). The IC50 values were determined by means of a four parameter fit.

[4] = system: HeLa cells; assay: Proliferation assay, crystal violet staining; conditions: Homo sapiens, 96 h
[5] = system: HeLa-MaTu-ADR cells; assay: Proliferation assay, crystal violet staining; type: cell-based; conditions: Homo sapiens, 96 h, 4 days incubation, read-out: Inhibition of HeLa-MaTu-ADR cell proliferation
Experimental: as §1

[6] = system: Caco-2 cells; assay: Proliferation assay, crystal violet staining; type: cell-based; conditions: Homo sapiens, Caco-2, 96 h, 4 days incubation, read-out: Inhibition of Caco-2 cell proliferation
Experimental: as §1

[7] = system: NCI-H460 cells; assay: Proliferation assay, crystal violet staining; conditions: Homo sapiens, NCI-H460, 96 h, read-out: Inhibition of NCI-H460 cell proliferation, NCI-H460 cells, 4 days incubation
Experimental: as §1

[8] = read-out: Inhibition of HeLa cell proliferation, HeLa cells, 4 days incubation

Chain of human ATR (Q13535 other isoform, or with tags, fused parts or gaps): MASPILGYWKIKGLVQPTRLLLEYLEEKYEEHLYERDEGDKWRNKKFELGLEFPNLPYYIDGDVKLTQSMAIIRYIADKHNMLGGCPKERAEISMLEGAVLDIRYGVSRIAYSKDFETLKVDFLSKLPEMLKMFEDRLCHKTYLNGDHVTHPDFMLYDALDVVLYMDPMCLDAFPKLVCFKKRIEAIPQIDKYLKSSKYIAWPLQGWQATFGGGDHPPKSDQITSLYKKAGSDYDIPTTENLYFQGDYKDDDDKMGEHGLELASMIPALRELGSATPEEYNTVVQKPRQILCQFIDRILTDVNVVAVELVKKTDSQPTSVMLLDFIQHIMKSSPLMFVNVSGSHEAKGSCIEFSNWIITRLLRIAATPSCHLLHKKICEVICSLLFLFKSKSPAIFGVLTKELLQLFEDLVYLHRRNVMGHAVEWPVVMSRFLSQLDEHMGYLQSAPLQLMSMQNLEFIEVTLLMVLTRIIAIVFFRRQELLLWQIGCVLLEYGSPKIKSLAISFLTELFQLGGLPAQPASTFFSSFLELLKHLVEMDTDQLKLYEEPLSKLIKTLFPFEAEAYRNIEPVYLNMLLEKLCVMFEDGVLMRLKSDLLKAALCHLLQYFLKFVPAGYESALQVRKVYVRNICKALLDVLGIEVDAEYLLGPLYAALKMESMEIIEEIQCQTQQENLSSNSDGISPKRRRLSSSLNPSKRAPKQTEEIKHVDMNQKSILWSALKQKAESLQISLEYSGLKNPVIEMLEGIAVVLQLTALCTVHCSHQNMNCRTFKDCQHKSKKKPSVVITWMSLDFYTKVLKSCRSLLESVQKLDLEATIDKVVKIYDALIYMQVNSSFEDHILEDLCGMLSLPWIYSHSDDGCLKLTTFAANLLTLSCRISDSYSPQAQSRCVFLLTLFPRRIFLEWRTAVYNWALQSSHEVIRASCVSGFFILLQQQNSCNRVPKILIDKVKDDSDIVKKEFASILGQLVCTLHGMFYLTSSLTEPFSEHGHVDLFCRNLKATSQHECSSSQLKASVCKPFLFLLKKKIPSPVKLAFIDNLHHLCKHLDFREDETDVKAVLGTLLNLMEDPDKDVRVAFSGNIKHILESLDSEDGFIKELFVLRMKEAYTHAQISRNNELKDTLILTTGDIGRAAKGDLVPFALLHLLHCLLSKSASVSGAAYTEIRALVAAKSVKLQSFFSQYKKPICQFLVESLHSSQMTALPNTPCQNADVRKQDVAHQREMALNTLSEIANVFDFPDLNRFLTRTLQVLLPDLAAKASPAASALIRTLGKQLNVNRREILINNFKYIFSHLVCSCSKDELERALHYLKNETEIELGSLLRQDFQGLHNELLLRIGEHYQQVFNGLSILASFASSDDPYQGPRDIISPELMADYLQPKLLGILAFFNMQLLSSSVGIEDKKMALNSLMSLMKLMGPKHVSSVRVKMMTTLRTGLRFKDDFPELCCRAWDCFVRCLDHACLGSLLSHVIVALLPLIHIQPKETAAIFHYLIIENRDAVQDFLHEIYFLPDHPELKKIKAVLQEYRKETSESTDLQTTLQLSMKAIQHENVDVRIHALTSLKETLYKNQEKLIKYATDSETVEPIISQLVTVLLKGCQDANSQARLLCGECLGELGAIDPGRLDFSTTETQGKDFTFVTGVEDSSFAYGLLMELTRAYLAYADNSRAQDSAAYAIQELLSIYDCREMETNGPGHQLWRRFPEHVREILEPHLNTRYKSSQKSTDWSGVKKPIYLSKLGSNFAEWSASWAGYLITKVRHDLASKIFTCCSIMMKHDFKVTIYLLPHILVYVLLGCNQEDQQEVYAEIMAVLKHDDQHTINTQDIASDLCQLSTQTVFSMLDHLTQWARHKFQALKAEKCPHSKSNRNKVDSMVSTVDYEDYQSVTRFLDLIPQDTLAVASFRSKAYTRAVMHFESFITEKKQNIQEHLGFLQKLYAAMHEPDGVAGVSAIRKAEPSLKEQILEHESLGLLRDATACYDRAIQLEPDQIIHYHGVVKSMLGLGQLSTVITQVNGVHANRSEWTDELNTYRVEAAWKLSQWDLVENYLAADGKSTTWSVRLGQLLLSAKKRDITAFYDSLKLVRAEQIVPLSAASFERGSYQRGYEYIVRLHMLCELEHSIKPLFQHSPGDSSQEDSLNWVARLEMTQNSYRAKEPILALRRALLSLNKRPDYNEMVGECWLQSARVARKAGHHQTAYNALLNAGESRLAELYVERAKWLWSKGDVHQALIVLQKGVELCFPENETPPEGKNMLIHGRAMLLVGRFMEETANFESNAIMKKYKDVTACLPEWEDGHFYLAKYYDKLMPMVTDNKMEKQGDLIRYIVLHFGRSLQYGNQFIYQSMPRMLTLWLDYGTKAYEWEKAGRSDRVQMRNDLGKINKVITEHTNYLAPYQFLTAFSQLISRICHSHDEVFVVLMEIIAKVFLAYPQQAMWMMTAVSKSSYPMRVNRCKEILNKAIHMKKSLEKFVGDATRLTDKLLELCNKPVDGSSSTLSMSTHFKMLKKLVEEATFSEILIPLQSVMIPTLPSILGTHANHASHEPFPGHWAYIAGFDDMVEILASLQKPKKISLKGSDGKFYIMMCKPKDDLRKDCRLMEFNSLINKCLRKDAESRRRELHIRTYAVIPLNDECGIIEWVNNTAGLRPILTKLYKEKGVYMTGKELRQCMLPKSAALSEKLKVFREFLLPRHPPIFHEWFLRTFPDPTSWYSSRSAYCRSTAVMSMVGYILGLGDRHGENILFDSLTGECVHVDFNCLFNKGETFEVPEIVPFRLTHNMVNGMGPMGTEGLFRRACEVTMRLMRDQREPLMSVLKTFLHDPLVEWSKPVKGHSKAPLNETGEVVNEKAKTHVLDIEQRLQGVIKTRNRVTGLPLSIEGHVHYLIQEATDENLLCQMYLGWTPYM
Chain of human ATR (Q8WXE1 other isoform, or with tags, fused parts or gaps partner): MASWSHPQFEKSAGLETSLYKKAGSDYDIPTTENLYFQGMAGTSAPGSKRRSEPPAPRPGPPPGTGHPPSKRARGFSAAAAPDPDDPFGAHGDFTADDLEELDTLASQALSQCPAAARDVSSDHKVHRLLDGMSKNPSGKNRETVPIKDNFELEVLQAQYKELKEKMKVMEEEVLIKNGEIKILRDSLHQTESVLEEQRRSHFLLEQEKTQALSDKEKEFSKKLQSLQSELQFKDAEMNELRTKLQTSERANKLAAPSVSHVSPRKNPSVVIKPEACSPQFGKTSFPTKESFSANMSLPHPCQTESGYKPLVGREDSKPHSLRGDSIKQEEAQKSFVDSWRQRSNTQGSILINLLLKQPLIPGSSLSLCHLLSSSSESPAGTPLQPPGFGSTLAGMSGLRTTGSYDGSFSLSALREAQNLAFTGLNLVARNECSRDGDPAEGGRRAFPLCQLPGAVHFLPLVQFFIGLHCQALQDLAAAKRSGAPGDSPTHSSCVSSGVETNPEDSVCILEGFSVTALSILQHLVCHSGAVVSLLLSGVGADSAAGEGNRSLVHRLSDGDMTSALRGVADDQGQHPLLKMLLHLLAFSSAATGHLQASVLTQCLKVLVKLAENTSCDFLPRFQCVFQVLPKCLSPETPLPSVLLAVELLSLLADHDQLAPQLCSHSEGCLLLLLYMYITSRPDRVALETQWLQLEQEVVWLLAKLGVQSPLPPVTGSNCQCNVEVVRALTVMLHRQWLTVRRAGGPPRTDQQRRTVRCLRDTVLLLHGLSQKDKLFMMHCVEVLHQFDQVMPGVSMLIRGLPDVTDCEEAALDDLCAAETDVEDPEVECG

Compound | IC50 [3] [nM] | IC50 [5] [nM] | IC50 [6] [nM] | IC50 [7] [nM] | IC50 [4, 8] [nM] | IC50 [1] [nM] | IC50 [2] [nM] | IC50 ([4]; read-out: Inhibition of HeLa cell proliferation) [nM]
CC1(C)C[C@@H]2C[C@@](C)(CN2c2cc(N3CCOCC3)nc3c(-c4ccn[nH]4)nccc23)C1 (stereo in doubt) [Example 421, 2-(morpholin-4-yl)-8-(1H-pyrazol-5-yl)-4-[1,3,3-trimethyl-6-azabicyclo[3.2.1]oct-6-yl]-1,7-naphthyridine] |  |  |  |  |  | 1790 |  | 
CCOP(C)(=O)c1cc(N2CCOC[C@H]2C)nc2c(-c3ccn[nH]3)nccc12 (stereo partly drawn) [Example 125, ethyl methyl{2-[(3R)-3-methylmorpholin-4-yl]-8-(1H-pyrazol-5-yl)-1,7-naphthyridin-4-yl}phosphinate] | 712 | > 3000 | > 3000 |  |  |  | > 3000 | 705
CC(C)S(=O)(=O)c1ccc(-c2cc(N3CCOC[C@H]3C)nc3c(-c4ccn[nH]4)nccc23)cc1 [Example 151, 4-[4-(isopropylsulfonyl)phenyl]-2-[(3R)-3-methylmorpholin-4-yl]-8-(1H-pyrazol-5-yl)-1,7-naphthyridine] | 1900 | 2150 | 2050 | 673 | 921 |  |  | 
C[C@@H]1COCCN1c1cc(N2CCN(C)C(=O)C2)c2ccnc(-c3ccn[nH]3)c2n1 [Example 157, 1-methyl-4-{2-[(3R)-3-methylmorpholin-4-yl]-8-(1H-pyrazol-5-yl)-1,7-naphthyridin-4-yl}piperazin-2-one] | > 3000 | > 3000 | > 3000 | > 3000 | 872 |  |  | 
CC(C)[S+]([O-])c1cc(N2CCOCC2)nc2c(-c3ccn[nH]3)nccc12 (centres unmarked) [Example 196, 2-(morpholin-4-yl)-4-[propan-2-ylsulfinyl]-8-(1H-pyrazol-5-yl)-1,7-naphthyridine] | 144 | > 3000 | 869 | 291 | 1020 |  |  | 
CC(C)S(=O)(=Nc1cc(N2CCOC[C@H]2C)nc2c(-c3ccn[nH]3)nccc12)c1ccc(Br)cc1 (some centres unmarked) [Example 275] |  |  |  |  |  | 304 |  | 

Continued, in another order:

IC50 [3] [nM] | IC50 [5] [nM] | IC50 [6] [nM] | IC50 [7] [nM] | IC50 [4, 8] [nM] | Compound | IC50 [1] [nM] | IC50 [2] [nM] | IC50 ([4]; read-out: Inhibition of HeLa cell proliferation) [nM]
129 | > 3000 | > 3000 | 516 | 1010 | C[C@@H]1COCCN1c1cc(OCCCS(C)(=O)=O)c2ccnc(-c3ccn[nH]3)c2n1 [Example 197, 2-[(3R)-3-methylmorpholin-4-yl]-4-[3-(methylsulfonyl)propoxy]-8-(1H-pyrazol-5-yl)-1,7-naphthyridine] |  |  | 
244 | 965 | 708 | 320 | 857 | CC(C)S(=O)(=O)c1cc(N2CCOCC2)nc2c(-c3ccn[nH]3)nccc12 [Example 199, 2-(morpholin-4-yl)-4-(propan-2-ylsulfonyl)-8-(1H-pyrazol-5-yl)-1,7-naphthyridine] |  |  | 
652 | 1490 | 1240 | 219 | 672 | C[C@@H]1COCCN1c1cc(-c2ccn[nH]2)c2ccnc(-c3ccn[nH]3)c2n1 [Example 205, 2-[(3R)-3-methylmorpholin-4-yl]-4,8-di(1H-pyrazol-5-yl)-1,7-naphthyridine] |  |  | 
1660 | > 3000 | > 3000 | 1110 | 1010 | O=S1(=O)CCCN1c1cc(N2CCOCC2)nc2c(-c3ccn[nH]3)nccc12 [Example 216, 4-(1,1-dioxido-1,2-thiazolidin-2-yl)-2-(morpholin-4-yl)-8-(1H-pyrazol-5-yl)-1,7-naphthyridine] |  |  | 
334 | 993 | > 1000 | 303 | 604 | COc1ncccc1-c1cc(N2CCOC[C@H]2C)nc2c(-c3ccn[nH]3)nccc12 [Example 220, 4-(2-methoxypyridin-3-yl)-2-[(3R)-3-methylmorpholin-4-yl]-8-(1H-pyrazol-5-yl)-1,7-naphthyridine] |  |  | 
313 | 594 | 637 | 233 | 225 | C[C@@H]1COCCN1c1cc(-c2ccc(F)nc2F)c2ccnc(-c3ccn[nH]3)c2n1 [Example 228, 4-(2,6-difluoropyridin-3-yl)-2-[(3R)-3-methylmorpholin-4-yl]-8-(1H-pyrazol-5-yl)-1,7-naphthyridine] |  |  | 
48.6 | 882 | 529 | 75.6 | 293 | C[C@@H]1COCCN1c1cc(C2(S(C)(=O)=O)CC2)c2ccnc(-c3ccn[nH]3)c2n1 [Example 286, 2-[(3R)-3-methylmorpholin-4-yl]-4-[1-(methylsulfonyl)cyclopropyl]-8-(1H-pyrazol-5-yl)-1,7-naphthyridine] |  |  | 
518 | 940 | 822 | 399 | 613 | Cn1nccc1-c1cc(N2CCOCC2)nc2c(-c3ccn[nH]3)nccc12 [Example 348, 4-(1-methyl-1H-pyrazol-5-yl)-2-(morpholin-4-yl)-8-(1H-pyrazol-5-yl)-1,7-naphthyridine] |  |  | 
